Values joined by “and” are separate entries in the source; they are usually repeats but may differ in a detail not shown here. Identical values can stand only once.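 GI50 marks 50% less growth. The concentration for full growth arrest is given as TGI.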
Experiments:
Test in all cases: DTP human tumour cell line panel, 384-well format
M14 melanoma = test system: M14 melanoma
NCI-H460 NSCLC = test system: NCI-H460 NSCLC
SNB-75 CNS = test system: SNB-75 CNS
BT-549 breast = test system: BT-549 breast
SK-MEL-28 melanoma = test system: SK-MEL-28 melanoma
SN12C renal = test system: SN12C renal
CAKI-1 renal = test system: CAKI-1 renal
786-0 renal = test system: 786-0 renal
NCI-H322M lung = test system: NCI-H322M lung
IGROV1 ovarian = test system: IGROV1 ovarian
HCC-2998 colon = test system: HCC-2998 colon
MDA-MB-231 breast = test system: MDA-MB-231 breast
K-562 leukemia = test system: K-562 leukemia
PC-3 prostate = test system: PC-3 prostate
SNB-19 CNS = test system: SNB-19 CNS
HS 578T breast = test system: HS 578T breast
CCRF-CEM leukemia = test system: CCRF-CEM leukemia
OVCAR-5 ovarian = test system: OVCAR-5 ovarian
UO-31 renal = test system: UO-31 renal
A498 renal = test system: A498 renal
SK-OV-3 ovarian = test system: SK-OV-3 ovarian
SF-268 CNS = test system: SF-268 CNS
MDA-MB-468 breast = test system: MDA-MB-468 breast
MCF7 breast = test system: MCF7 breast
COLO 205 colon = test system: COLO 205 colon
SW-620 colon = test system: SW-620 colon
ACHN renal = test system: ACHN renal
MDA-MB-435 melanoma = test system: MDA-MB-435 melanoma
HOP-62 NSCLC = test system: HOP-62 NSCLC
SF-295 CNS = test system: SF-295 CNS
TK-10 renal = test system: TK-10 renal
MOLT-4 leukemia = test system: MOLT-4 leukemia
RXF 393 renal = test system: RXF 393 renal
HCT-15 colon = test system: HCT-15 colon
NCI-H23 lung = test system: NCI-H23 lung
HOP-92 NSCLC = test system: HOP-92 NSCLC
SK-MEL-5 melanoma = test system: SK-MEL-5 melanoma
SK-MEL-2 melanoma = test system: SK-MEL-2 melanoma
SF-539 CNS = test system: SF-539 CNS
NCI-H522 lung = test system: NCI-H522 lung
OVCAR-3 ovarian = test system: OVCAR-3 ovarian
DU-145 prostate = test system: DU-145 prostate
OVCAR-4 ovarian = test system: OVCAR-4 ovarian
A549 NSCLC = test system: A549 NSCLC
UACC-257 melanoma = test system: UACC-257 melanoma
EKVX NSCLC = test system: EKVX NSCLC
HCT-116 colon = test system: HCT-116 colon
HT29 colon = test system: HT29 colon
MALME-3M melanoma = test system: MALME-3M melanoma
SR leukemia = test system: SR leukemia
KM12 colon = test system: KM12 colon
NCI-H226 lung = test system: NCI-H226 lung
T-47D breast = test system: T-47D breast
U251 glioblastoma = test system: U251 glioblastoma
RPMI-8226 leukemia = test system: RPMI-8226 leukemia
LOX IMVI melanoma = test system: LOX IMVI melanoma
HL-60(TB) leukemia = test system: HL-60(TB) leukemia
UACC-62 melanoma = test system: UACC-62 melanoma
NCI/ADR-RES ovarian = test system: NCI/ADR-RES ovarian

## CC1Cc2ccccc2N1C(=O)Cc1nc(N2CCOCC2)cc(=O)[nH]1 (stereo not drawn)
M14 melanoma
  GI50: > 100 µM and 71 µM
  TGI: > 100 µM
NCI-H460 NSCLC
  GI50: 8.38 µM and 29.9 µM
  TGI: > 100 µM
SNB-75 CNS
  GI50: 0.561 µM and 3.1 µM
  TGI: 25.4 µM and 40.2 µM
BT-549 breast
  GI50: 2.46 µM and 11.6 µM
  TGI: 45.6 µM and > 100 µM
SK-MEL-28 melanoma
  GI50: 6.88 µM and 26.8 µM
  TGI: > 100 µM
SN12C renal
  GI50: 4.74 µM and 22.6 µM
  TGI: > 100 µM
CAKI-1 renal
  GI50: 4.84 µM and 12.7 µM
  TGI: > 100 µM
786-0 renal
  GI50: 3.31 µM and 17.8 µM
  TGI: > 100 µM
NCI-H322M lung
  GI50: 12.5 µM and 38.2 µM
  TGI: 99.7 µM and > 100 µM
IGROV1 ovarian
  GI50: 1.72 µM and 7.93 µM
  TGI: 7.96 µM and 32.8 µM
HCC-2998 colon
  GI50: 4.86 µM and 33 µM
  TGI: 75.2 µM and > 100 µM
MDA-MB-231 breast
  GI50: 22.5 µM and 51.2 µM
  TGI: > 100 µM
K-562 leukemia
  GI50: 37.8 µM and 78.3 µM
  TGI: > 100 µM
PC-3 prostate
  GI50: 1.86 µM and 4.92 µM
  TGI: > 100 µM
SNB-19 CNS
  GI50: > 100 µM
  TGI: > 100 µM
HS 578T breast
  GI50: 3.8 µM and 13.4 µM
  TGI: 23.1 µM and 58.3 µM
CCRF-CEM leukemia
  GI50: 23.1 µM and 61.7 µM
  TGI: > 100 µM
OVCAR-5 ovarian
  GI50: 18.9 µM and 58.3 µM
  TGI: > 100 µM
UO-31 renal
  GI50: 4.59 µM and 14 µM
  TGI: > 100 µM and 45.6 µM
A498 renal
  GI50: 0.286 µM and 1.34 µM
  TGI: 2.47 µM and 7.74 µM
SK-OV-3 ovarian
  GI50: 8.17 µM and 16.2 µM
  TGI: > 100 µM
SF-268 CNS
  GI50: 18.5 µM and 49.8 µM
  TGI: > 100 µM
MDA-MB-468 breast
  GI50: 3.31 µM and 15.1 µM
  TGI: 17.7 µM and 65.7 µM
MCF7 breast
  GI50: 3.23 µM and 14.9 µM
  TGI: > 100 µM
COLO 205 colon
  GI50: 53.8 µM and > 100 µM
  TGI: > 100 µM
SW-620 colon
  GI50: 64.3 µM and > 100 µM
  TGI: > 100 µM
ACHN renal
  GI50: 5.56 µM and 17.4 µM
  TGI: > 100 µM
MDA-MB-435 melanoma
  GI50: > 100 µM and 85.3 µM
  TGI: > 100 µM
HOP-62 NSCLC
  GI50: 20.6 µM and 33.5 µM
  TGI: > 100 µM
SF-295 CNS
  GI50: 5.17 µM and 17.9 µM
  TGI: > 100 µM
TK-10 renal
  GI50: 7.25 µM and 25.3 µM
  TGI: > 100 µM
MOLT-4 leukemia
  GI50: 4.69 µM and 15 µM
  TGI: 20.4 µM and 41 µM
RXF 393 renal
  GI50: 0.266 µM and 1.16 µM
  TGI: 3.44 µM and 15 µM
HCT-15 colon
  GI50: 24.1 µM and 37.9 µM
  TGI: > 100 µM
NCI-H23 lung
  GI50: 37.6 µM and > 100 µM
  TGI: > 100 µM
HOP-92 NSCLC
  GI50: 8.04 µM and 25.3 µM
  TGI: > 100 µM
SK-MEL-5 melanoma
  GI50: 20.2 µM and 33.2 µM
  TGI: > 100 µM
SK-MEL-2 melanoma
  GI50: 63.2 µM and > 100 µM
  TGI: > 100 µM
SF-539 CNS
  GI50: 22.4 µM and 59.7 µM
  TGI: > 100 µM
NCI-H522 lung
  GI50: 25.2 µM and 57.7 µM
  TGI: > 100 µM
OVCAR-3 ovarian
  GI50: 2.41 µM and 8.56 µM
  TGI: 24.6 µM and > 100 µM
DU-145 prostate
  GI50: 14.2 µM and 34.2 µM
  TGI: > 100 µM
OVCAR-4 ovarian
  GI50: > 100 µM and 74.9 µM
  TGI: > 100 µM
A549 NSCLC
  GI50: 16.2 µM and 32.4 µM
  TGI: > 100 µM
UACC-257 melanoma
  GI50: 47.9 µM and > 100 µM
  TGI: > 100 µM
EKVX NSCLC
  GI50: 5.5 µM and 15.9 µM
  TGI: 38.9 µM and 98.9 µM
HCT-116 colon
  GI50: 16.3 µM and 52.1 µM
  TGI: > 100 µM
HT29 colon
  GI50: 9.87 µM and 49.4 µM
  TGI: 29.7 µM and > 100 µM
MALME-3M melanoma
  GI50: 14.3 µM and 23.3 µM
  TGI: 97.1 µM and > 100 µM
SR leukemia
  GI50: 14.3 µM and 21.4 µM
  TGI: 28.4 µM and 62.9 µM
KM12 colon
  GI50: 13.5 µM and 72 µM
  TGI: 34.4 µM and > 100 µM
NCI-H226 lung
  GI50: 63.2 µM and 65.3 µM
  TGI: > 100 µM
T-47D breast
  GI50: 3.31 µM and 11.2 µM
  TGI: 65 µM and 75.2 µM
U251 glioblastoma
  GI50: 67.8 µM and > 100 µM
  TGI: > 100 µM
RPMI-8226 leukemia
  GI50: 11.8 µM and 36.3 µM
  TGI: 24.9 µM and > 100 µM
LOX IMVI melanoma
  GI50: 14.5 µM and 50.9 µM
  TGI: 42.4 µM and > 100 µM
HL-60(TB) leukemia
  GI50: 3.35 µM and 10.3 µM
  TGI: 24.7 µM and > 100 µM
UACC-62 melanoma
  GI50: 9.61 µM and 32.7 µM
  TGI: > 100 µM
NCI/ADR-RES ovarian
  GI50: > 100 µM
  TGI: > 100 µM
